From patent publication US9303076B2, “Cell-penetrating peptides and uses thereof” (Hoffmann-La Roche Inc., priority 2010, dated 2016)
Entries after “also recorded” stand apart in the source; their conditions may differ.

What was measured:
MCF7 cells [1] = tested on: MCF7 cells
Procedure: (§1) MCF7 cells were seeded at a density of 15.000 cells per well in 96 well plates. The cells were incubated for 24 hours at 37° C., 5% CO2 and 85% humidity in RPMI 1640 medium supplemented with 10% FCS (fetal calf serum) and L-glutamine. For functional assays, the cells were washed in OptiMEM medium and RPMI 1640 was replaced with OptiMEM (all reagents were purchased from Invitrogen Corporation, Carlsbad, Calif., USA). Complexes of siRNAs and peptides were formed by incubation of 100 nM siRNA with the indicated peptide concentrations in OptiMEM for 30 minutes at room temperature. The complexes were added to the cells and incubated for 3 hours. Subsequently, OptiMEM was replaced with normal RPMI 1640 growth medium. The cells were incubated for further 21 hours for generating bDNA lysates, and for further 45 hours for performing CellTiter-Glo or CytoTox-Glo assays (cf. below).
(§2) In order to measure the number of living cells the CellTiter-Glo Luminescent Cell Viability Assay (Promega Corporation, Madison, Wis., USA) was used according to the protocol of the manufacturer. The cells were incubated for 48 hours in the presence of peptides and siRNAs. Subsequently, the cells are lysed, and a luminescent signal proportional to the amount of ATP present is generated which, in turn, is proportional to the number of living cells present. Luminescence was analyzed in an InfiniteF200 luminescence reader.
(§3) Based on this observation, GAPDH mRNA levels were used as a general readout for toxicity: an average measurement of 100% GAPDH mRNA relative to the medium control was considered as non-toxic, values between 99% and 70% as moderate toxic, and values of less than 70% as toxic (cf. FIG. 3).
(§4) Similarly, peptides resulting in GAPDH mRNA values >70% were classified as “nontoxic”, whereas peptides that caused a reduction of GAPDH mRNA to lesser values were termed “toxic”.

human Aha1 mRNA [2] = experiment: siRNA transfection in the presence of serum; format: cell-based; conditions: serum-containing medium
Procedure: NRTN was analyzed for its ability to transfect siRNA duplexes in the absence (A) and presence (B) of serum in the transfection medium. The experimental approach was the same as in FIG. 3. The assay was either carried out in normal RPMI 1640 growth medium containing 10% FCS (B) or for three hours in OptiMEM reduced serum medium followed by change of the medium back to normal growth medium (A). The mRNA values obtained at 1 μM were set to 100% to show dose dependent effects. Aha1 siRNA is shown as black filled squares; luciferase siRNA is shown as non-filled circles.
Most of the assays described herein were performed under the “standard in vitro conditions” for the detection of peptide-mediated transfection that are well established in the art (see, e.g., Simeoni, F. et al. (2003) Nucleic Acids Res. 31, 2717-2724; Richard, J. P. et al. (2005) J. Biol. Chem. 280, 15300-15306; Abes, R. et al. (2007) Biochem. Soc. Trans. 35, 775-779; Kumar, P. et al. (2007) Nature 448, 39-43; Mueller, J. et al. (2008) Bioconjug. Chem. 19, 2363-2374; Sugita, T. et al. (2008) Br. J. Pharmacol. 153, 1143-1152). Accordingly, the incubation for the initial “transfection step” is performed under basically serum free conditions. The addition of serum at this step interferes with the transfection ability of the CPPs (cf. FIG. 13; see also Ignatovich, I. A. et al. (2003), supra). […]

human Aha1 mRNA [3] = experiment: siRNA transfection screening (siAha1 vs siGL3 control, bDNA assay of Aha1/GAPDH mRNA); format: cell-based
Procedure: For the quantification of cellular mRNA levels bDNA (branched DNA) assays were performed which enable the detection of individual mRNA levels. To this end, a defined number of the cells to be analyzed was seeded into 96-well plates and allowed to attach over night. On the next day, the cells were transfected with siRNA.
After further 24 hours, the mRNA species were quantified using the QuantiGene Plex 2.0 assay kit according to the manufacturers instructions (Affymetrix Inc., Santa Clara, Calif., USA). In brief, cell lysates were transferred to a capture plate in the presence of a gene-specific probe set and incubated at 53° C. over night. After washing, the wells were sequentially incubated at 53° C. with an amplifier agent and an alkaline phosphatase (AP)-linked label probe with a washing step in between. Subsequently, the luminescent AP substrate dioxitane was added and incubated for 30 min at 53° C. Luminescence was assayed using an InfiniteF200 luminescence reader (Tecan Austria GmbH, Groding, Austria).
In order to analyze the potential CPPs for their ability to transfect siRNA into mammalian cells an increasing peptide concentration (from 1 μM to 20 μM) was employed along with a constant siRNA concentration (100 nM). This range of peptide concentrations was used as it had been shown that positively charged peptides such as TAT are internalized into cells in ranges up to 10 μM and remain in intracellular membrane compartments without significant egress into the cytosol (Duchardt, F. et al. (2007) Traffic 8, 848-866). […] A concentration of 10 nM siRNA is in the saturation range as determined in control experiments using the DharmaFECT transfection reagent (Dharmacon, Inc., Lafayette, Colo., USA; data not shown).
The siRNA oligonucleotides employed were directed against human Aha1 mRNA (Panaretou, B. et al. (2002) Mol. Cell 10, 1307-1318) or against luciferase mRNA as a control.
Complexes of siRNA and the respective peptides were formed in OptiMEM medium and incubated for 15 minutes at room temperature. The cells were incubated in the presence of the complexes for three hours in OptiMEM. After washing, the cells were incubated for further 21 or 45 hours in normal growth medium. Thereafter, the levels of Aha1 mRNA and a reference mRNA (i.e. GAPDH mRNA) were measured by means of a bDNA assay. These assays were performed with cells that were transfected with siAHA1 and with a control siRNA (siGL3, luciferase), respectively.
As a measure for specific RNAi, the reduction of Aha1 mRNA levels relative to GAPDH mRNA levels was compared in siAHA1-transfected cells and siGL3-transfected cells. Specific siRNA mediated transfection causes a reduction in Aha1/GAPDH mRNA values in siAhA1-compared to siGL3-transfected cells. FIG. 3 depicts the screening readout of these assays: the Aha1/GAPDH mRNA values of non-transfected control cells were set to 100% (for each assay), and the Aha1/GAPDH mRNA values of siAha1- or siGL3-transfected cells were expressed relative to that. For this normalized data set, the differences between the respective Aha1/GAPDH mRNA levels of siAha1- and siGL3-transfected cells were determined. Specific peptides caused a significant reduction in siAha1 transfection without reducing siGL3 transfections, which results in positive difference values. The more pronounced these values are, the more specific RNAi is observed (cf. FIG. 3).

human Eg5 mRNA = experiment: peptide-mediated transfection of siRNA targeting Eg5 (mRNA level, CytoTox-Glo apoptosis); format: cell-based
Procedure: The siRNA sequence specificity of NRTN was investigated via analysis of the peptide's ability to transfect a siRNA duplex targeting human Eg5 mRNA. The Eg5 knockdown dependent induction of apoptosis was determined by performing a CytoTox-Glo cytotoxicity assay (Promega Inc.). The mRNA values obtained at 1 μM were set to 100% to show dose dependent effects. Induction of apoptosis is expressed as percent of medium control. Aha1 siRNA is shown as black filled squares; luciferase siRNA is shown as non-filled circles.
Then, the cells were treated with a luminogenic peptide substrate in order to measure dead-cell protease activity, which is released from cells that have lost membrane integrity. […] The luminescence of this assay therefore represents dead cells. The 96 well plates were then analyzed in an InfiniteF200 luminescence reader.
An effective reduction of cellular Eg5 mRNA levels was found at concentrations of <10 μM. […] It is known that effective depletion of Eg5 mRNA causes mitotic arrest resulting in the onset of apoptosis (Blangy, A. et al. (1995), supra). […] Transfections with control siRNA under identical conditions were not cytotoxic either, thus confirming that the apoptotic phenotype was caused by Eg5 mRNA depletion.

MCF7 cells [4] = experiment: growth inhibition/toxicity (CellTiter-Glo viability, GAPDH mRNA levels)
Procedure: as §1, §2, §3, §4

Sequence: GAAEAAARVYDLGLRRLRQRRRLRRERVRA (NRTN peptide sequence; listed as Homo sapiens)
- peptide concentration at which cell growth/viability was affected (MCF7 cells [1]): above 10 μM
- transfection in the presence of medium with reduced serum concentration (human Aha1 mRNA [2]): can still mediate transfection
- siRNA transfection activity (specific Aha1 mRNA reduction relative to GAPDH mRNA) (human Aha1 mRNA [3]; MCF7 cells, 100 nM siRNA, peptide 1 μM to 20 μM): even more effective reduction of Aha1 mRNA levels
- transfection efficacy compared with TAT / control peptides (human Aha1 mRNA [3]; NRTN: at lower non-toxic concentrations): higher than that of all (positive) control peptides analyzed; also recorded: efficacy even higher than TAT
- apoptotic phenotype upon siEg5 transfection (human Eg5 mRNA; CytoTox-Glo): an apoptotic phenotype was observed
- peptide concentration giving effective reduction of cellular Eg5 mRNA levels (human Eg5 mRNA; siRNA targeting Eg5): < 10 µM
- interference with cell viability at doses effective for Eg5 knockdown (MCF7 cells [4]; <10 μM): does not interfere with cell viability
- cell viability / growth inhibition / toxicity (CellTiter-Glo, GAPDH mRNA levels) (MCF7 cells [4]; MCF7 cells, peptide 1 μM to 20 μM): only minor effects on cell viability
